Tests used:
[1] = test system: 15 resistant strains and their parents; assay: Cross-resistance panel, asexual blood stage proliferation EC50 fold shifts (all strains); assay type: cell-based, Plasmodium falciparum; details: for EC50 fold-shifts in resistant lines relative to parent clones: loss of efficacy in some resistant lines
Excerpt: (§1) To evaluate potential overlapping activity against known antimalarial drug targets, we performed dose-response studies with each compound against our assembled set of drug-resistant lines and their corresponding parents, in an asexual blood stage proliferation assay (Table 1). Comparisons were made to the drug-sensitive strain 3D7 when a parent was unavailable (TM90C2A, W2 and Dd2). As laboratories conducted EC50 assays with different strains and protocols, all comparisons were made between assays from the same laboratory and under the same assay conditions. Compounds displaying >5-fold EC50 shifts relative to the parent or sensitive strain were flagged as having potentially non-novel targets. Average fold shifts per strain ranged from 0.82 to 2.34, with a median of 1.23 indicating there was not common resistance to any one resistant clone. No resistance patterns were observed when classifying the compounds based on chemical structure, but this was not surprising given the diversity of compounds chosen. […]
(§2) The 48-h assay was carried out in a 96-well format following standard methods using the ^3H-hypoxanthine incorporation assay. […] Radioactivity was measured using a microbeta counter. […] All assays were conducted in triplicate using three independently grown cultures, and EC50 values were determined using the XLfit add-in module for Excel (version 2.3.1) from Grafit (version 5.3.1.3), where parameter h is the assay hill slope, x is the compound concentration and y is the inhibition of growth effect. […]
(§3) Alternatively, a SYBR Green-based proliferation approach was used for the 72-h assay, as previously described. […] Following incubation, 10 × SYBR Green I (Invitrogen; supplied in 10,000 × concentration) in lysis buffer ([…], 5 mM EDTA, 0.16% Saponin wt per vol and 1.6% Triton X vol per vol) was added to the wells and the plates were incubated overnight at room temperature before plate reading. […]

[2] = test system: PfATP4-Mut2 (PfATP4 P412L, parent W2); assay: Cross-resistance EC50 assay, PfATP4-Mut2; assay type: cell-based, Plasmodium falciparum
Excerpt: as §1, §2, §3

[3] = test system: PfATP4-Mut3 (PfATP4 F917L, parent 3D7); assay type: cell-based, Plasmodium falciparum
Excerpt: as §1, with “clone.” for “clone. No resistance patterns were observed when classifying the compounds based on chemical structure, but this was not surprising given the diversity of compounds chosen.”
as §2

Hepatocyte toxicity = assay type: cell-based, human; details: human; read-out: HepG2 EC50 (hepatocyte toxicity)
Outline: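 HepG2 cells were pretreated with compound for 2 h, then infected with fresh P. berghei sporozoites. After 48 h, exoerythrocytic-form viability was read by BrightGlo luminescence; hepatocyte toxicity was tested in parallel. EC50s came from 12-point curves run in duplicate, starting at 5 μM or 50 μM.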

[4] = test system: resistant parasites generated by MMV007564; assay: Cross-resistance to parasites selected with MMV007564; assay type: cell-based, Plasmodium falciparum
Excerpt: While we found an overall lack of pre-existing resistance, analysing the onset of resistance was critical, as compounds resulting in rapid resistance are not ideal for clinical development. We therefore sought to create drug-resistant parasites using a variety of different selection methods. We implemented either a high-dose method or a ramp-up/pulse method for our in vitro selections. Two of the 50 compounds—MMV028895 and MMV665824—were removed from the selection study during experimentation. […] Out of the remaining 48 compounds, resistant parasites were obtained for 23 (Supplementary Data 1). As each selection was performed in triplicate with three independent cultures, we succeeded in generating a total of 66 resistant cultures. Parasites resistant to MMV026596 were not obtained despite 100 days of selection, but the cultures acquired hypersensitivity to mefloquine with a 10-fold reduction in EC50 compared with its parental line, 3D7. For the remaining 24 compounds, acquisition of resistant parasites was unsuccessful despite numerous attempts over an extensive period of time.

[5] = test system: PfATP4-Mut1 (PfATP4 V178I, parent W2); assay: Cross-resistance EC50 assay, PfATP4-Mut1; assay type: cell-based, Plasmodium falciparum; details: loss of efficacy
Excerpt: as §1, with “clone.” for “clone. No resistance patterns were observed when classifying the compounds based on chemical structure, but this was not surprising given the diversity of compounds chosen.”
as §2

Cc1c(C)n(Cc2ccc(F)cc2)c2ccc(C(=O)NCc3ccco3)cc12 [MMV008149]
EC50 fold-shifts in resistant lines relative to parent clones [1]: > 5 fold

CCN(CC)S(=O)(=O)c1ccc(-c2csc(Nc3ccc(C)c(C)c3)n2)cc1 [MMV009108]
EC50 fold-shift, ATP4-Mut2 vs parent [2]: 23 × | EC50 fold-shift, ATP4-Mut3 vs parent [3]: 5.2 ×

COc1ccccc1CNC(=O)CCn1c(=O)[nH]c2ccsc2c1=O [MMV019066]
EC50 fold-shifts in resistant lines relative to parent clones [1]: > 5 fold

CN(C)S(=O)(=O)c1cc(-c2ccc3nccc(-c4cccc(S(N)(=O)=O)c4)c3c2)cnc1N [MMV024038]
EC50 (Hepatocyte toxicity): 0.146 µM

CC(C)c1cccc(C(NC(=O)C2Cc3ccccc3CN2C(=O)c2cccc(N3CCOCC3)c2)C2CCCC2)c1 (stereo not shown) [MMV028038]
EC50 fold-shift, ATP4-Mut2 vs parent [2]: 5 ×

CN(C)CCCN(C)C(=O)C1Cc2cc(-c3ccccc3)ccc2N1S(=O)(=O)c1ccccc1 (stereo not shown) [MMV028895]
cross-resistance to resistant parasites generated by MMV007564 [4]: exhibited cross-resistance | EC50 fold-shift, other Dd2 clones compared with 3D7, average ([1]; Dd2-derived clones, average): 5.5 ×

O=C(Nc1ccsc1C(=O)NC1CCCCC1)c1ccc(F)cc1 [MMV665939]
EC50 fold-shift, PfATP4-Mut2 compared with 3D7 ([2]; loss of efficacy): 18.9 × | EC50 fold-shift, PfATP4-Mut1 compared with 3D7 [5]: 16.6 ×
